Starred links: 1 amine or outer side, 2 acyl side, 3 side chain; linkers in the order of their positions; H or OH if unused. Positions of bridges follow the written chain, without caps; N, C: chain ends. Non-standard residues stand in square brackets, D forms with d. Residues, ends and D or L forms follow the SMILES beside them. Trp(5-F) = N[C@@H](Cc1c[nH]c2ccc(F)cc12)C(=O)O; mXylylene(5-F) = Fc1cc(C[*:1])cc(C[*:2])c1; mXylylene = c1cc(C[*:1])cc(C[*:2])c1; Cha = N[C@@H](CC1CCCCC1)C(=O)O; NMeL = CN[C@@H](CC(C)C)C(=O)O; αMeP = C[C@@]1(C(=O)O)CCCN1; Mpa = O=C(O)CCS
Experiments:
Format in all cases: binding
PCSK9 [1] = biological target: T1, PCSK9 (Homo sapiens (Human), UniProt Q8NBP7); experiment: PCSK9 Alexa FRET Plus assay (displacement of AlexaFluor647 tagged cyclic peptide Reagent B); details: 0.5 nM PCSK9, 960 nM AF cyclic peptide Reagent B
Outline: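 TR-FRET displacement with final 0.5 nM biotinylated PCSK9, 1.25 nM Strep-Eu and 960 nM AlexaFluor-tagged cyclic peptide in HEPES pH 7.4, NaCl, CaCl2, BSA, P20; ≥2 h at room temperature. IC50 from sigmoidal fit, converted to Ki using peptide KD. Falling europium counts flagged false positives.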

[2] = biological target: human PCSK9 / human LDLR EGFa domain interaction (Homo sapiens (Human), UniProt Q8NBP7); experiment: TR-FRET assay of inhibition of the PCSK9-LDLR protein-protein interaction; details: TR-FRET, 20 nM human PCSK9, 20 nM human LDLR EGFa domain, 2 hours room temperature; read-out: IC50
Outline: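 20 nM biotin-avitag PCSK9 + 20 nM His-LDLR EGFa; 5 nM Ulight-SA / 5 nM Eu-anti-His; 2 h RT; HEPES 50 mM, NaCl 150 mM, CaCl2 5 mM, 0.01% BSA, 0.01% P20. Half-maximal inhibition, 4-parameter fit.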

PCSK9 [3] = biological target: T1, PCSK9; experiment: PCSK9 Alexa FRET Standard assay (displacement of AlexaFluor647 tagged cyclic peptide Reagent A); details: PCSK9 Alexa FRET Standard assay, 0.5 nM PCSK9, 20 nM AF cyclic peptide Reagent A; read-out: IC50
Outline: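 TR-FRET displacement: 0.5 nM biotinylated PCSK9 with 1.25 nM Strep-Eu and 20 nM AlexaFluor-tagged cyclic peptide (final) in 50 mM HEPES pH 7.4, 0.15 M NaCl, 5 mM CaCl2, 0.01% BSA, 0.01% P20, ≥2 h at room temperature. IC50 from sigmoidal fit, converted to Ki via peptide KD; falling Eu counts flagged false positives.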

[4] = Alexa FRET Plus, read-out: IC50

Chain of human PCSK9 / human LDLR EGFa domain interaction (Q8NBP7 153-692): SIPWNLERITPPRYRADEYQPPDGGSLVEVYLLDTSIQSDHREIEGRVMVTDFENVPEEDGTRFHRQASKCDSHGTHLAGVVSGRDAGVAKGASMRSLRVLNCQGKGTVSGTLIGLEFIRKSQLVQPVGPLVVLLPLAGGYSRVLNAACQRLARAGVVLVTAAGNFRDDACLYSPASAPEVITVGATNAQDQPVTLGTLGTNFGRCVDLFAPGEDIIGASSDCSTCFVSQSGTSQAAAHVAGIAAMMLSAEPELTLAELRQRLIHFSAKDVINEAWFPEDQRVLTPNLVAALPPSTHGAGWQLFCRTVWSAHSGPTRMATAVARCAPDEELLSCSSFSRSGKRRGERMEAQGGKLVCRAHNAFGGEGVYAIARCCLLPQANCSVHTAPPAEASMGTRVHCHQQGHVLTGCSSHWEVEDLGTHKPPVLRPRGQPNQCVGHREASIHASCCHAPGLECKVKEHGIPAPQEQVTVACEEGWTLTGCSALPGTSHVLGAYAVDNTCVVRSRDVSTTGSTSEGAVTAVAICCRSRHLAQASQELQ
Chain of human PCSK9 / human LDLR EGFa domain interaction (Q8NBP7 31-152 partner): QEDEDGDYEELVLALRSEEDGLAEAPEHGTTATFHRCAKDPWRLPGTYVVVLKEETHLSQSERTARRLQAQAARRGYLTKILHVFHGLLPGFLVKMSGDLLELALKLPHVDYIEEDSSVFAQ
T1 sequence (Q8NBP7 153-692): as the sequence (Q8NBP7 153-692) above

SMILES | IC50 (PCSK9 [1]; [4]) | IC50 [2] | IC50 (PCSK9 [3]) | IC50 (PCSK9 [1]; IC50, Alexa FRET Plus)
COc1ccc(C[C@@H]2NC(=O)[C@H](C(C)C)NC(=O)[C@@H]3CCCN3C(=O)[C@H](Cc3c[nH]c4ccc(F)cc34)NC(=O)[C@H](Cc3c[nH]c4ccc(F)cc34)NC(=O)[C@@H](C)NC(=O)[C@H](CCCCN)NC(=O)CCSCc3cc(F)cc(c3)CSC[C@@H](C(N)=O)NC(=O)[C@]3(C)CCCN3C2=O)cc1 [Compound 010] ([Mpa]K[dA][Trp(5-F)][Trp(5-F)]PVY(Me)[αMeP]C-NH2; linker 1-10 via mXylylene(5-F)) | 0.5 to 5 µM | 0.0001 to 0.1 µM | 0.1 to 1 µM | –
COc1ccc(C[C@@H]2NC(=O)[C@H](Cc3ccc(OC)cc3)NC(=O)[C@@H](CC(C)C)NC(=O)[C@H]([C@@H](C)OC)NC(=O)CCSCc3cccc(c3)CSC[C@@H](C(N)=O)NC(=O)[C@@H]3CCCN3C(=O)[C@H](Cc3ccc(OC)cc3)NC(=O)[C@H](Cc3ccc(OC)cc3)NC(=O)[C@H](CC(C)C)NC2=O)cc1 [Compound 034] ([Mpa]T(Me)[dL]Y(Me)Y(Me)LY(Me)Y(Me)PC-NH2; linker 1-10 via mXylylene) | 0.0001 to 0.1 µM | 0.0001 to 0.1 µM | 0.00011 to 0.1 µM | –
COc1ccc(C[C@@H]2NC(=O)[C@H]([C@@H](C)O)NC(=O)[C@@H]3C[C@H](F)CN3C(=O)[C@H](Cc3c[nH]c4ccc(F)cc34)NC(=O)[C@H](Cc3c[nH]c4ccc(F)cc34)NC(=O)[C@@H](C)NC(=O)CNC(=O)CCCCNCc3ccc(cc3)C[C@@H](C(N)=O)NC(=O)[C@]3(C)CCCN3C2=O)cc1 [Compound 130] | – | 0.0001 to 0.1 µM | 0.00011 to 0.1 µM | 0.1 to 0.5 µM
NCCCC[C@@H]1NC(=O)CCCn2cc(nn2)C[C@@H](C(N)=O)NC(=O)[C@@H]2CCCN2C(=O)[C@H](Cc2ccc(O)cc2)NC(=O)[C@H](Cc2c[nH]cn2)NC(=O)[C@H](CC(=O)O)NC(=O)[C@H](Cc2c[nH]c3ccc(F)cc23)NC(=O)[C@H](Cc2c[nH]c3ccc(F)cc23)NC(=O)CNC1=O [Compound 184] | 0.0001 to 0.1 µM | 0.0001 to 0.1 µM | 0.00011 to 0.1 µM | –

More lines, main results first:

IC50 (PCSK9 [1]; [4]) | IC50 [2] | IC50 (PCSK9 [3]) | SMILES | IC50 (PCSK9 [1]; IC50, Alexa FRET Plus)
0.1 to 0.5 µM | 0.0001 to 0.1 µM | 0.00011 to 0.1 µM | CC(C)C[C@@H]1NC(=O)[C@@H]2CCCN2C(=O)[C@H](Cc2c[nH]c3ccc(F)cc23)NC(=O)[C@H](Cc2c[nH]c3ccc(F)cc23)NC(=O)CNC(=O)[C@H](CCCCN)NC(=O)CCSCc2cccc(c2)CSC[C@@H](C(N)=O)NC(=O)[C@]2(C)CCCN2C(=O)[C@H](Cc2ccc(O)cc2)NC1=O [Compound 004] ([Mpa]KG[Trp(5-F)][Trp(5-F)]PLY[αMeP]C-NH2; linker 1-10 via mXylylene) | –
0.5 to 5 µM | 0.0001 to 0.1 µM | 0.1 to 1 µM | CC[C@H](C)[C@@H]1NC(=O)[C@@H]2CCCN2C(=O)[C@H](Cc2c[nH]c3ccc(F)cc23)NC(=O)[C@H](Cc2c[nH]c3ccc(F)cc23)NC(=O)[C@@H](C)NC(=O)[C@H](CCCCN)NC(=O)CCSCc2cccc(c2)CSC[C@@H](C(N)=O)NC(=O)[C@]2(C)CCCN2C(=O)[C@H](Cc2ccc(OC)cc2)NC1=O [Compound 007] ([Mpa]K[dA][Trp(5-F)][Trp(5-F)]PIY(Me)[αMeP]C-NH2; linker 1-10 via mXylylene) | –
0.0001 to 0.1 µM | 0.0001 to 0.1 µM | 0.00011 to 0.1 µM | COc1ccc(C[C@@H]2NC(=O)[C@@H](CC(C)C)NC(=O)[C@H]([C@@H](C)OC)NC(=O)CCSCc3cccc(c3)CSC[C@@H](C(N)=O)NC(=O)[C@]3(C)CCCN3C(=O)[C@H](Cc3ccc(OC)cc3)NC(=O)[C@H]([C@@H](C)OC)NC(=O)[C@H](CC(C)C)N(C)C(=O)[C@H](Cc3ccc(OC)cc3)NC2=O)cc1 [Compound 035] ([Mpa]T(Me)[dL]Y(Me)Y(Me)[NMeL]T(Me)Y(Me)[αMeP]C-NH2; linker 1-10 via mXylylene) | –
0.5 to 5 µM | 0.0001 to 0.1 µM | 0.1 to 1 µM | NCCCC[C@@H]1NC(=O)CCCn2cc(nn2)CCC[C@@H](C(N)=O)NC(=O)[C@@H]2CCCN2C(=O)[C@H](Cc2ccc(O)cc2)NC(=O)[C@H](Cc2c[nH]cn2)NC(=O)[C@H](CC(=O)O)NC(=O)[C@H](Cc2c[nH]c3ccc(F)cc23)NC(=O)[C@H](Cc2c[nH]c3ccc(F)cc23)NC(=O)CNC1=O [Compound 152] | –
0.1 to 0.5 µM | 0.0001 to 0.1 µM | 0.00011 to 0.1 µM | NCCCC[C@@H]1NC(=O)CCSCc2cccc(c2)CSC[C@@H](C(N)=O)NC(=O)[C@@H]2CCCN2C(=O)[C@H](Cc2ccc(O)cc2)NC(=O)[C@H](Cc2c[nH]cn2)NC(=O)[C@H](CC(=O)O)NC(=O)[C@H](Cc2c[nH]c3ccc(F)cc23)NC(=O)[C@H](CC2CCCCC2)NC(=O)CNC1=O [Compound 223] ([Mpa]KG[Cha][Trp(5-F)]DHYPC-NH2; linker 1-10 via mXylylene) | –

Source: patent US11530244B2, “Cyclic polypeptides for PCSK9 inhibition” (priority 2018, dated 2022)
